Reference: publication PMC6006479, “Minimization of dynamic effects in the evolution of dihydrofolate reductase” (Chemical Science, 2016)

Biological target: T1, MpDHFR (Moritella profunda, UniProt Q70YQ6)
T1 construct: gene dyrA; purified recombinant enzyme made in minimal medium; 'light' form with natural abundance isotopes; construct details only in supplement; monomeric
Test: steady-state kinetics
Type: biochemical
Conditions: light (natural abundance) enzyme, pH 7.0

T1 sequence (Q70YQ6 entry or part of it): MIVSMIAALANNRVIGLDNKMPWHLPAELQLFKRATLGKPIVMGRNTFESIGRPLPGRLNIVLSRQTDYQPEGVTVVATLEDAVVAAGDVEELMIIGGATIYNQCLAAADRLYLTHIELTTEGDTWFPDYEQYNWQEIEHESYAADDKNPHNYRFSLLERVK

SMILES | Michaelis constant (co-substrate dihydrofolate) | Michaelis constant (co-substrate NADPH)
NC(=O)C1=CN([C@@H]2O[C@H](COP(=O)(O)OP(=O)(O)OC[C@H]3O[C@@H](n4cnc5c(N)ncnc54)[C@H](OP(=O)(O)O)[C@@H]3O)[C@@H](O)[C@H]2O)C=CC1 [NADPH] | The Michaelis constants for NADPH and DHF are essentially the same for all these enzymes | 
Nc1nc2c(c(=O)[nH]1)N=C(CNc1ccc(C(=O)N[C@@H](CCC(=O)O)C(=O)O)cc1)CN2 [DHF] |  | The Michaelis constants for NADPH and DHF are essentially the same for all these enzymes
